In PubChem BioAssay (NCI):
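Tested at 5 concentrations; 48 h exposure; 96-well plates; endpoints linearly interpolated, else capped at highest concentration. TGI denotes the concentration required for complete inhibition of growth.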

Assays:
Experiment in all cases: NCI-60 cell line screen, 48 h
PC-3 prostate = test system: PC-3 prostate
SK-OV-3 ovarian = test system: SK-OV-3 ovarian
OVCAR-5 ovarian = test system: OVCAR-5 ovarian
CAKI-1 renal = test system: CAKI-1 renal
BT-549 breast = test system: BT-549 breast
SW-620 colon = test system: SW-620 colon
SK-MEL-28 melanoma = test system: SK-MEL-28 melanoma
HS 578T breast = test system: HS 578T breast
HT29 colon = test system: HT29 colon
MALME-3M melanoma = test system: MALME-3M melanoma
CCRF-CEM leukemia = test system: CCRF-CEM leukemia
NCI-H23 lung = test system: NCI-H23 lung
SF-539 CNS = test system: SF-539 CNS
NCI/ADR-RES ovarian = test system: NCI/ADR-RES ovarian
KM12 colon = test system: KM12 colon
SF-268 CNS = test system: SF-268 CNS
M14 melanoma = test system: M14 melanoma
A549 NSCLC = test system: A549 NSCLC
SF-295 CNS = test system: SF-295 CNS
HCT-116 colon = test system: HCT-116 colon
UACC-62 melanoma = test system: UACC-62 melanoma
SNB-19 CNS = test system: SNB-19 CNS
RPMI-8226 leukemia = test system: RPMI-8226 leukemia
SNB-75 CNS = test system: SNB-75 CNS
OVCAR-8 ovarian = test system: OVCAR-8 ovarian
MDA-N = test system: MDA-N
SK-MEL-5 melanoma = test system: SK-MEL-5 melanoma
HCT-15 colon = test system: HCT-15 colon
HOP-92 NSCLC = test system: HOP-92 NSCLC
NCI-H226 lung = test system: NCI-H226 lung
UACC-257 melanoma = test system: UACC-257 melanoma
RXF 393 renal = test system: RXF 393 renal
MCF7 breast = test system: MCF7 breast
UO-31 renal = test system: UO-31 renal
MDA-MB-231 breast = test system: MDA-MB-231 breast
SK-MEL-2 melanoma = test system: SK-MEL-2 melanoma
K-562 leukemia = test system: K-562 leukemia
SN12C renal = test system: SN12C renal
HCC-2998 colon = test system: HCC-2998 colon
OVCAR-3 ovarian = test system: OVCAR-3 ovarian
ACHN renal = test system: ACHN renal
HL-60(TB) leukemia = test system: HL-60(TB) leukemia
HOP-62 NSCLC = test system: HOP-62 NSCLC
786-0 renal = test system: 786-0 renal
NCI-H460 lung = test system: NCI-H460 lung
IGROV1 ovarian = test system: IGROV1 ovarian
NCI-H522 lung = test system: NCI-H522 lung
LOX IMVI melanoma = test system: LOX IMVI melanoma
COLO 205 colon = test system: COLO 205 colon
SR leukemia = test system: SR leukemia
DU-145 prostate = test system: DU-145 prostate
EKVX NSCLC = test system: EKVX NSCLC
MOLT-4 leukemia = test system: MOLT-4 leukemia
MDA-MB-435 = test system: MDA-MB-435
U251 CNS = test system: U251 CNS
T-47D breast = test system: T-47D breast
TK-10 renal = test system: TK-10 renal
A498 renal = test system: A498 renal
OVCAR-4 ovarian = test system: OVCAR-4 ovarian

CC(=O)OCC(OC(C)=O)C(OC(C)=O)C(/C=N\Nc1nc2ccccc2c(=O)[nH]1)=N\Nc1nc2ccccc2c(=O)[nH]1 (stereo unspecified) was tested, and the TGI (PC-3 prostate) was greater than 100 µM, the TGI (SK-OV-3 ovarian) was greater than 100 µM and the TGI (OVCAR-5 ovarian) was greater than 100 µM. The TGI (CAKI-1 renal) was greater than 100 µM, the TGI (BT-549 breast) was greater than 100 µM and the TGI (SW-620 colon) was greater than 100 µM. For the same molecule, the TGI (SK-MEL-28 melanoma) was greater than 100 µM, the TGI (HS 578T breast) was greater than 100 µM and the TGI (HT29 colon) was greater than 100 µM. The TGI (MALME-3M melanoma) was greater than 100 µM, the TGI (CCRF-CEM leukemia) was greater than 100 µM and the TGI (NCI-H23 lung) was greater than 100 µM. The TGI (SF-539 CNS) was greater than 100 µM, the TGI (NCI/ADR-RES ovarian) was greater than 100 µM and the TGI (KM12 colon) was greater than 100 µM. The TGI (SF-268 CNS) was greater than 100 µM, the TGI (M14 melanoma) was greater than 100 µM and the TGI (A549 NSCLC) was greater than 100 µM. It also gave a TGI (SF-295 CNS) greater than 100 µM, a TGI (HCT-116 colon) greater than 100 µM and a TGI (UACC-62 melanoma) greater than 100 µM. The TGI (SNB-19 CNS) was greater than 100 µM, the TGI (RPMI-8226 leukemia) was greater than 100 µM and the TGI (SNB-75 CNS) was greater than 100 µM. It also gave a TGI (OVCAR-8 ovarian) greater than 100 µM, a TGI (MDA-N) greater than 100 µM and a TGI (SK-MEL-5 melanoma) greater than 100 µM. The TGI (HCT-15 colon) was greater than 100 µM, the TGI (HOP-92 NSCLC) was greater than 100 µM and the TGI (NCI-H226 lung) was greater than 100 µM. It also gave a TGI (UACC-257 melanoma) of 34 µM, a TGI (RXF 393 renal) greater than 100 µM and a TGI (MCF7 breast) greater than 100 µM. The TGI (UO-31 renal) was greater than 100 µM, the TGI (MDA-MB-231 breast) was greater than 100 µM and the TGI (SK-MEL-2 melanoma) was greater than 100 µM. The TGI (K-562 leukemia) was greater than 100 µM, the TGI (SN12C renal) was greater than 100 µM and the TGI (HCC-2998 colon) was 36.3 µM. It also gave a TGI (OVCAR-3 ovarian) greater than 100 µM, a TGI (ACHN renal) greater than 100 µM and a TGI (HL-60(TB) leukemia) greater than 100 µM. It also gave a TGI (HOP-62 NSCLC) greater than 100 µM, a TGI (786-0 renal) greater than 100 µM and a TGI (NCI-H460 lung) of 47.6 µM. The TGI (IGROV1 ovarian) was greater than 100 µM, the TGI (NCI-H522 lung) was greater than 100 µM and the TGI (LOX IMVI melanoma) was greater than 100 µM. It also gave a TGI (COLO 205 colon) greater than 100 µM, a TGI (SR leukemia) greater than 100 µM and a TGI (DU-145 prostate) greater than 100 µM. The TGI (EKVX NSCLC) was greater than 100 µM, the TGI (MOLT-4 leukemia) was greater than 100 µM and the TGI (MDA-MB-435) was greater than 100 µM. It also gave a TGI (U251 CNS) greater than 100 µM and a TGI (T-47D breast) greater than 100 µM.
CC(=O)N1N=C(c2ccc3ccccc3c2O)CC1c1cccs1 (stereo unspecified) gave a TGI (PC-3 prostate) greater than 100 µM, a TGI (SK-OV-3 ovarian) greater than 100 µM and a TGI (OVCAR-5 ovarian) greater than 100 µM. For the same molecule, the TGI (CAKI-1 renal) was greater than 100 µM, the TGI (BT-549 breast) was 83.9 µM and the TGI (SW-620 colon) was greater than 100 µM. The TGI (SK-MEL-28 melanoma) was greater than 100 µM, the TGI (HS 578T breast) was greater than 100 µM and the TGI (HT29 colon) was greater than 100 µM. The TGI (MALME-3M melanoma) was greater than 100 µM, the TGI (CCRF-CEM leukemia) was greater than 100 µM and the TGI (NCI-H23 lung) was greater than 100 µM. The TGI (TK-10 renal) was greater than 100 µM, the TGI (SF-539 CNS) was 89.2 µM and the TGI (NCI/ADR-RES ovarian) was 39.5 µM. It also gave a TGI (KM12 colon) of 46.4 µM, a TGI (SF-268 CNS) greater than 100 µM and a TGI (M14 melanoma) of 39.1 µM. The TGI (A549 NSCLC) was 94.9 µM, the TGI (SF-295 CNS) was greater than 100 µM and the TGI (HCT-116 colon) was greater than 100 µM. It also gave a TGI (UACC-62 melanoma) of 25.9 µM, a TGI (RPMI-8226 leukemia) of 47.1 µM and a TGI (SNB-75 CNS) greater than 100 µM. It also gave a TGI (OVCAR-8 ovarian) greater than 100 µM, a TGI (MDA-N) greater than 100 µM and a TGI (SK-MEL-5 melanoma) greater than 100 µM. For the same molecule, the TGI (HCT-15 colon) was greater than 100 µM, the TGI (HOP-92 NSCLC) was greater than 100 µM and the TGI (NCI-H226 lung) was greater than 100 µM. The TGI (UACC-257 melanoma) was greater than 100 µM, the TGI (A498 renal) was 44.5 µM and the TGI (RXF 393 renal) was 99.3 µM. The TGI (MCF7 breast) was greater than 100 µM, the TGI (UO-31 renal) was 64.1 µM and the TGI (MDA-MB-231 breast) was greater than 100 µM. It also gave a TGI (SK-MEL-2 melanoma) of 74.3 µM, a TGI (K-562 leukemia) of 22.5 µM and a TGI (SN12C renal) greater than 100 µM. The TGI (OVCAR-4 ovarian) was greater than 100 µM, the TGI (HCC-2998 colon) was 66 µM and the TGI (OVCAR-3 ovarian) was greater than 100 µM. The TGI (ACHN renal) was greater than 100 µM, the TGI (HOP-62 NSCLC) was greater than 100 µM and the TGI (NCI-H460 lung) was greater than 100 µM. The TGI (IGROV1 ovarian) was greater than 100 µM, the TGI (NCI-H522 lung) was 75.1 µM and the TGI (COLO 205 colon) was greater than 100 µM. For the same molecule, the TGI (SR leukemia) was 14.3 µM, the TGI (DU-145 prostate) was greater than 100 µM and the TGI (MOLT-4 leukemia) was 33.5 µM. For the same molecule, the TGI (MDA-MB-435) was greater than 100 µM, the TGI (U251 CNS) was greater than 100 µM and the TGI (T-47D breast) was greater than 100 µM.
Work on O=C(O)/C=C/C(=O)N1Cc2cc3ccccc3nc2C1 yielded a TGI (PC-3 prostate) greater than 100 µM, a TGI (SK-OV-3 ovarian) greater than 100 µM and a TGI (OVCAR-5 ovarian) greater than 100 µM. For the same molecule, the TGI (CAKI-1 renal) was greater than 100 µM, the TGI (BT-549 breast) was greater than 100 µM and the TGI (SW-620 colon) was greater than 100 µM. For the same molecule, the TGI (SK-MEL-28 melanoma) was greater than 100 µM, the TGI (HS 578T breast) was greater than 100 µM and the TGI (HT29 colon) was greater than 100 µM. For the same molecule, the TGI (MALME-3M melanoma) was greater than 100 µM, the TGI (NCI-H23 lung) was greater than 100 µM and the TGI (TK-10 renal) was greater than 100 µM. It also gave a TGI (SF-539 CNS) greater than 100 µM, a TGI (NCI/ADR-RES ovarian) greater than 100 µM and a TGI (KM12 colon) greater than 100 µM. It also gave a TGI (SF-268 CNS) greater than 100 µM, a TGI (M14 melanoma) greater than 100 µM and a TGI (A549 NSCLC) greater than 100 µM. For the same molecule, the TGI (SF-295 CNS) was greater than 100 µM, the TGI (HCT-116 colon) was greater than 100 µM and the TGI (UACC-62 melanoma) was greater than 100 µM. For the same molecule, the TGI (SNB-19 CNS) was greater than 100 µM, the TGI (RPMI-8226 leukemia) was greater than 100 µM and the TGI (SNB-75 CNS) was greater than 100 µM. The TGI (OVCAR-8 ovarian) was greater than 100 µM, the TGI (MDA-N) was greater than 100 µM and the TGI (SK-MEL-5 melanoma) was greater than 100 µM. For the same molecule, the TGI (HCT-15 colon) was greater than 100 µM, the TGI (HOP-92 NSCLC) was greater than 100 µM and the TGI (NCI-H226 lung) was greater than 100 µM. For the same molecule, the TGI (UACC-257 melanoma) was greater than 100 µM, the TGI (RXF 393 renal) was greater than 100 µM and the TGI (MCF7 breast) was greater than 100 µM. The TGI (UO-31 renal) was greater than 100 µM, the TGI (MDA-MB-231 breast) was greater than 100 µM and the TGI (SK-MEL-2 melanoma) was greater than 100 µM. The TGI (K-562 leukemia) was greater than 100 µM, the TGI (SN12C renal) was greater than 100 µM and the TGI (HCC-2998 colon) was greater than 100 µM. It also gave a TGI (OVCAR-3 ovarian) greater than 100 µM, a TGI (ACHN renal) greater than 100 µM and a TGI (HL-60(TB) leukemia) greater than 100 µM. It also gave a TGI (HOP-62 NSCLC) greater than 100 µM, a TGI (786-0 renal) greater than 100 µM and a TGI (NCI-H460 lung) greater than 100 µM. It also gave a TGI (IGROV1 ovarian) greater than 100 µM, a TGI (NCI-H522 lung) greater than 100 µM and a TGI (LOX IMVI melanoma) greater than 100 µM. The TGI (COLO 205 colon) was greater than 100 µM, the TGI (SR leukemia) was greater than 100 µM and the TGI (DU-145 prostate) was greater than 100 µM. It also gave a TGI (EKVX NSCLC) greater than 100 µM, a TGI (MOLT-4 leukemia) greater than 100 µM and a TGI (MDA-MB-435) greater than 100 µM. For the same molecule, the TGI (U251 CNS) was greater than 100 µM and the TGI (T-47D breast) was greater than 100 µM.
